What was measured:
Type in all cases: in vivo
[1] = tested on: Cabbage Looper (Trichoplusia ni, TRIPNI); assay: Bioassays on Cabbage Looper (CL), 128-well diet tray assay; settings: Trichoplusia ni; Cabbage Looper; rating class; read-out: CL
Outline: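 Each of eight wells receives artificial diet treated at 50 μg/cm^2 with the test molecule, then one to five second-instar larvae. Incubation runs five to seven days at 25° C with a 14:10 light-dark cycle under vented covers. Mortality is scored per well as a percentage and averaged.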

[2] = tested on: Beet Armyworm (Spodoptera exigua, LAPHEG); assay: Bioassays on Beet Armyworm (BAW), 128-well diet tray assay; settings: Spodoptera exigua; Beet Armyworm; rating class; read-out: BAW
Outline: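 Test molecule was dissolved in 90:10 acetone-water and applied at 50 μg/cm^2 onto artificial diet in eight wells, then dried. Second instar larvae, one to five per well, were added, and trays were kept vented at 25° C. with a 14:10 photoperiod for five to seven days before mortality was recorded.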

[3] = tested on: Yellow Fever Mosquito (Aedes aegypti, AEDSAE); settings: Yellow Fever Mosquito; rating class
Outline: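 Larvae ~1 day old, in liver powder/water; compound from 4000 ppm DMSO stock diluted with water/acetone (90:10); 6 reps; lidded, RT, 3 d; mortality scored per well, rated.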

O=C(Nc1ccc(F)c(NC(=O)C(F)(F)F)c1F)c1cc(NC(=O)[C@H]2[C@H](c3ccc(Cl)c(Cl)c3)C2(Cl)Cl)cc(F)c1F [F1444, 5-((1R,3R)-2,2-Dichloro-3-(3,4-dichlorophenyl)cyclopropane-1-carboxamido)-N-(2,4-difluoro-3-(2,2,2-trifluoroacetamido)phenyl)-2,3-difluorobenzamide]
pest or weed control at 50 µg/cm2 [1]: 50 to 100%
pest or weed control at 50 µg/cm2 [2]: 50 to 100%
YFM [3]: A (80–100)

O=C(Nc1ccc(F)c(NC(=O)C(F)F)c1F)c1cccc(NC(=O)[C@H]2[C@H](c3ccc(Cl)c(Cl)c3)C2(Cl)Cl)c1 [F1447, 3-((1R,3R)-2,2-Dichloro-3-(3,4-dichlorophenyl)cyclopropane-1-carboxamido)-N-(3-(2,2-difluoroacetamido)-2,4-difluorophenyl)benzamide]
pest or weed control at 50 µg/cm2 [1]: 50 to 100%
pest or weed control at 50 µg/cm2 [2]: 50 to 100%
YFM [3]: A (80–100)

Cc1c(N)cccc1NC(=O)c1cc(NC(=O)[C@H]2[C@H](c3ccc(F)c(C(F)(F)F)c3)C2(Cl)Cl)ccc1Cl [F1448, N-(3-Amino-2-methylphenyl)-2-chloro-5-((1R,3R)-2,2-dichloro-3-(4-fluoro-3-(trifluoromethyl)phenyl)cyclopropane-1-carboxamido)benzamide]
pest or weed control at 50 µg/cm2 [1]: 50 to 100%
pest or weed control at 50 µg/cm2 [2]: 50 to 100%
YFM [3]: A (80–100)

O=C(Nc1ccc(F)c(NC(=O)C(F)(F)C(F)(F)C(F)(F)F)c1F)c1cc(NC(=O)[C@H]2[C@H](c3ccc(F)c(C(F)(F)F)c3)C2(Cl)Cl)ccc1Cl [F1450, 2-Chloro-5-((1R,3R)-2,2-dichloro-3-(4-fluoro-3-(trifluoromethyl)phenyl)cyclopropane-1-carboxamido)-N-(2,4-difluoro-3-(2,2,3,3,4,4,4-heptafluorobutanamido)phenyl)benzamide]
pest or weed control at 50 µg/cm2 [1]: 50 to 100%
pest or weed control at 50 µg/cm2 [2]: 50 to 100%
YFM [3]: A (80–100)

Cc1c(NC(=O)c2cc(NC(=O)[C@H]3[C@H](c4ccc(F)c(C(F)(F)F)c4)C3(Cl)Cl)ccc2Cl)cccc1NC(=O)C(F)(F)F [F1451, 2-Chloro-5-((1R,3R)-2,2-dichloro-3-(4-fluoro-3-(trifluoromethyl)phenyl)cyclopropane-1-carboxamido)-N-(2-methyl-3-(2,2,2-trifluoroacetamido)phenyl)benzamide]
pest or weed control at 50 µg/cm2 [1]: 50 to 100%
pest or weed control at 50 µg/cm2 [2]: 50 to 100%
YFM [3]: A (80–100)

CCN(C(=O)C(F)F)c1c(F)ccc(NC(=O)c2cc(NC(=O)[C@H]3[C@H](c4ccc(F)c(C(F)(F)F)c4)C3(Cl)Cl)ccc2Cl)c1F [F1452, 2-Chloro-5-((1R,3R)-2,2-dichloro-3-(4-fluoro-3-(trifluoromethyl)phenyl)cyclopropane-1-carboxamido)-N-(3-(N-ethyl-2,2-difluoroacetamido)-2,4-difluorophenyl)benzamide]
pest or weed control at 50 µg/cm2 [1]: 50 to 100%
pest or weed control at 50 µg/cm2 [2]: 50 to 100%
YFM [3]: A (80–100)

CC(=O)Nc1ccc(F)c(NC(=O)c2cc(NC(=O)[C@H]3[C@H](c4ccc(F)c(C(F)(F)F)c4)C3(Cl)Cl)ccc2Cl)c1F [F1454, N-(3-Acetamido-2,6-difluorophenyl)-2-chloro-5-((1R,3R)-2,2-dichloro-3-(4-fluoro-3-(trifluoromethyl)phenyl)cyclopropane-1-carboxamido)benzamide]
pest or weed control at 50 µg/cm2 [1]: 50 to 100%
pest or weed control at 50 µg/cm2 [2]: 50 to 100%
YFM [3]: A (80–100)

CN(C(=O)C(F)F)c1c(F)ccc(NC(=O)c2cc(NC(=O)[C@H]3[C@H](c4cc(Cl)c(Cl)c(Cl)c4)C3(Cl)Cl)ccc2Cl)c1F [F1461, 2-Chloro-5-((1R,3R)-2,2-dichloro-3-(3,4,5-trichlorophenyl)cyclopropane-1-carboxamido)-N-(3-(2,2-difluoro-N-methylacetamido)-2,4-difluorophenyl)benzamide]
pest or weed control at 50 µg/cm2 [1]: 50 to 100%
pest or weed control at 50 µg/cm2 [2]: 50 to 100%
YFM [3]: A (80–100)

O=C(Nc1ccccc1)c1c(Cl)ccc(NC(=O)[C@H]2[C@H](c3ccc(F)c(Cl)c3)C2(Cl)Cl)c1F [F1466, 6-Chloro-3-((1R,3R)-2,2-dichloro-3-(3-chloro-4-fluorophenyl)cyclopropane-1-carboxamido)-2-fluoro-N-phenylbenzamide]
pest or weed control at 50 µg/cm2 [1]: 50 to 100%
pest or weed control at 50 µg/cm2 [2]: 50 to 100%
YFM [3]: A (80–100)

O=C(Nc1ccc(F)c(NC(=O)C2CCOC2)c1F)c1cc(NC(=O)[C@H]2[C@H](c3ccc(F)c(C(F)(F)F)c3)C2(Cl)Cl)ccc1Cl (stereo partly drawn) [F1480, N-(3-(2-Chloro-5-((1R,3R)-2,2-dichloro-3-(4-fluoro-3-(trifluoromethyl)phenyl)cyclopropane-1-carboxamido)benzamido)-2,6-difluorophenyl)tetrahydrofuran-3-carboxamide]
pest or weed control at 50 µg/cm2 [1]: 50 to 100%
pest or weed control at 50 µg/cm2 [2]: 50 to 100%
YFM [3]: A (80–100)

O=C(Nc1ccc(F)c(NC(=O)C2CC(F)(F)C2(F)F)c1F)c1cc(NC(=O)[C@H]2[C@H](c3ccc(F)c(C(F)(F)F)c3)C2(Cl)Cl)ccc1Cl (stereo partly drawn) [F1481, 2-Chloro-5-((1R,3R)-2,2-dichloro-3-(4-fluoro-3-(trifluoromethyl)phenyl)cyclopropane-1-carboxamido)-N-(2,4-difluoro-3-(2,2,3,3-tetrafluorocyclobutane-1-carboxamido)phenyl)benzamide]
pest or weed control at 50 µg/cm2 [1]: 50 to 100%
pest or weed control at 50 µg/cm2 [2]: 50 to 100%
YFM [3]: A (80–100)

C=CCN(C(=O)C(F)F)c1c(F)ccc(NC(=O)c2cc(NC(=O)[C@H]3[C@H](c4ccc(F)c(C(F)(F)F)c4)C3(Cl)Cl)ccc2Cl)c1F [F1482, N-(3-(N-Allyl-2,2-difluoroacetamido)-2,4-difluorophenyl)-2-chloro-5-((1R,3R)-2,2-dichloro-3-(4-fluoro-3-(trifluoromethyl)phenyl)cyclopropane-1-carboxamido)benzamide]
pest or weed control at 50 µg/cm2 [1]: 50 to 100%
pest or weed control at 50 µg/cm2 [2]: 50 to 100%
YFM [3]: A (80–100)

O=C1CCC(C(=O)Nc2c(F)ccc(NC(=O)c3cc(NC(=O)[C@H]4[C@H](c5ccc(F)c(C(F)(F)F)c5)C4(Cl)Cl)ccc3Cl)c2F)C1 (stereo partly drawn) [F1488, 2-Chloro-5-((1R,3R)-2,2-dichloro-3-(4-fluoro-3-(trifluoromethyl)phenyl)cyclopropane-1-carboxamido)-N-(2,4-difluoro-3-(3-oxocyclopentane-1-carboxamido)phenyl)benzamide]
pest or weed control at 50 µg/cm2 [1]: 50 to 100%
pest or weed control at 50 µg/cm2 [2]: 50 to 100%
YFM [3]: A (80–100)

CC(=O)N(C)c1c(F)ccc(NC(=O)c2cc(NC(=O)[C@H]3[C@H](c4ccc(F)c(C(F)(F)F)c4)C3(Cl)Cl)ccc2Cl)c1F [F1506, 2-Chloro-5-((1R,3R)-2,2-dichloro-3-(4-fluoro-3-(trifluoromethyl)phenyl)cyclopropane-1-carboxamido)-N-(2,4-difluoro-3-(N-methylacetamido)phenyl)benzamide]
pest or weed control at 50 µg/cm2 [1]: 50 to 100%
pest or weed control at 50 µg/cm2 [2]: 50 to 100%
YFM [3]: A (80–100)

CC1(C)C(=O)CC1C(=O)Nc1c(F)ccc(NC(=O)c2cc(NC(=O)[C@H]3[C@H](c4ccc(F)c(C(F)(F)F)c4)C3(Cl)Cl)ccc2Cl)c1F (stereo partly drawn) [F1507, 2-Chloro-5-((1R,3R)-2,2-dichloro-3-(4-fluoro-3-(trifluoromethyl)phenyl)cyclopropane-1-carboxamido)-N-(3-(2,2-dimethyl-3-oxocyclobutane-1-carboxamido)-2,4-difluorophenyl)benzamide]
pest or weed control at 50 µg/cm2 [1]: 50 to 100%
pest or weed control at 50 µg/cm2 [2]: 50 to 100%
YFM [3]: A (80–100)

O=C(Nc1cc(NC(=O)C(F)(F)F)c(F)cc1F)c1cc(NC(=O)[C@H]2[C@H](c3ccc(Cl)c(Cl)c3)C2(Cl)Cl)ccc1F [F1510, 5-((1R,3R)-2,2-Dichloro-3-(3,4-dichlorophenyl)cyclopropane-1-carboxamido)-N-(2,4-difluoro-5-(2,2,2-trifluoroacetamido)phenyl)-2-fluorobenzamide]
pest or weed control at 50 µg/cm2 [1]: 50 to 100%
pest or weed control at 50 µg/cm2 [2]: 50 to 100%
YFM [3]: A (80–100)

CC(=O)Nc1cc(NC(=O)c2cc(NC(=O)[C@H]3[C@H](c4ccc(Cl)c(Cl)c4)C3(Cl)Cl)ccc2F)c(F)cc1F [F1511, N-(5-Acetamido-2,4-difluorophenyl)-5-((1R,3R)-2,2-dichloro-3-(3,4-dichlorophenyl)cyclopropane-1-carboxamido)-2-fluorobenzamide]
pest or weed control at 50 µg/cm2 [1]: 50 to 100%
pest or weed control at 50 µg/cm2 [2]: 50 to 100%
YFM [3]: A (80–100)

O=C(Nc1ccc(F)c(NC(=O)C2CCCO2)c1F)c1cc(NC(=O)[C@H]2[C@H](c3ccc(F)c(C(F)(F)F)c3)C2(Cl)Cl)ccc1Cl (stereo partly drawn) [F1521, N-(3-(2-Chloro-5-((1R,3R)-2,2-dichloro-3-(4-fluoro-3-(trifluoromethyl)phenyl)cyclopropane-1-carboxamido)benzamido)-2,6-difluorophenyl)tetrahydrofuran-2-carboxamide]
pest or weed control at 50 µg/cm2 [1]: 50 to 100%
pest or weed control at 50 µg/cm2 [2]: 50 to 100%
YFM [3]: A (80–100)

O=C(Nc1ccc(F)c(NC(=O)C(F)(F)F)c1F)c1cc(NC(=O)[C@H]2[C@H](c3cc(Cl)c(Cl)c(Cl)c3)C2(Cl)Cl)ccc1F [F1526, 5-((1R,3R)-2,2-Dichloro-3-(3,4,5-trichlorophenyl)cyclopropane-1-carboxamido)-N-(2,4-difluoro-3-(2,2,2-trifluoroacetamido)phenyl)-2-fluorobenzamide]
pest or weed control at 50 µg/cm2 [1]: 50 to 100%
pest or weed control at 50 µg/cm2 [2]: 50 to 100%
YFM [3]: A (80–100)
